US8192962B2, “Processes for detecting toxic substances” (Daikin Industries, Ltd., priority 2001, dated 2012)

Test system: Energy system protein genes
Test: DNA chip mRNA expression in yeast, energy system protein genes (Table 4)
Type: cell-based, Saccharomyces cerevisiae S288C
Summary of the method: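 Value is the scanned fluorescence intensity ratio of exposed versus chemical-free cells. Log-phase S288C yeast in YPD at 25° C. received one toxic substance for two hours, dosed to slow growth without killing; Cy3/Cy5-labeled cDNA from oligo-dT-purified mRNA was hybridized to a whole-genome chip at 65° C.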

## O=[N+]([O-])c1cc[n+]([O-])c2ccccc12 [(5), 4-nitroquinolin-N-oxide]
Yeast gene YAL060W
  The level of expressed mRNA in the presence of chemical substance/The level of expressed mRNA in the absence of chemical substance: 1.2
Yeast gene YBL058W, cells incubated two hours with the chemical substance
  The level of expressed mRNA in the presence of chemical substance/The level of expressed mRNA in the absence of chemical substance: 1.6
Yeast gene YBL099W, cells incubated two hours with the chemical substance
  The level of expressed mRNA in the presence of chemical substance/The level of expressed mRNA in the absence of chemical substance: 1.0
Yeast gene YBR001C, cells incubated two hours with the chemical substance
  The level of expressed mRNA in the presence of chemical substance/The level of expressed mRNA in the absence of chemical substance: 0.9
Yeast gene YBR185C, cells incubated two hours with the chemical substance
  The level of expressed mRNA in the presence of chemical substance/The level of expressed mRNA in the absence of chemical substance: 0.8
Yeast gene YBR221C, cells incubated two hours with the chemical substance
  The level of expressed mRNA in the presence of chemical substance/The level of expressed mRNA in the absence of chemical substance: 1.3
Yeast gene YCL040W
  The level of expressed mRNA in the presence of chemical substance/The level of expressed mRNA in the absence of chemical substance: 0.5
Yeast gene YCR012W
  The level of expressed mRNA in the presence of chemical substance/The level of expressed mRNA in the absence of chemical substance: 1.1
Yeast gene YCR046C, cells incubated two hours with the chemical substance
  The level of expressed mRNA in the presence of chemical substance/The level of expressed mRNA in the absence of chemical substance: 1.0
Yeast gene YCR105W, cells incubated two hours with the chemical substance
  The level of expressed mRNA in the presence of chemical substance/The level of expressed mRNA in the absence of chemical substance: 0.9
Yeast gene YDL021W
  The level of expressed mRNA in the presence of chemical substance/The level of expressed mRNA in the absence of chemical substance: 1.7
Yeast gene YDL067C, cells incubated two hours with the chemical substance
  The level of expressed mRNA in the presence of chemical substance/The level of expressed mRNA in the absence of chemical substance: 2.0
Yeast gene YDL078C, cells incubated two hours with the chemical substance
  The level of expressed mRNA in the presence of chemical substance/The level of expressed mRNA in the absence of chemical substance: 1.3
Yeast gene YDL107W, cells incubated two hours with the chemical substance
  The level of expressed mRNA in the presence of chemical substance/The level of expressed mRNA in the absence of chemical substance: 1.0
Yeast gene YDL174C
  The level of expressed mRNA in the presence of chemical substance/The level of expressed mRNA in the absence of chemical substance: 0.5
Yeast gene YDL181W, cells incubated two hours with the chemical substance
  The level of expressed mRNA in the presence of chemical substance/The level of expressed mRNA in the absence of chemical substance: 1.7
Yeast gene YDR001C
  The level of expressed mRNA in the presence of chemical substance/The level of expressed mRNA in the absence of chemical substance: 1.1
Yeast gene YDR050C, cells incubated two hours with the chemical substance
  The level of expressed mRNA in the presence of chemical substance/The level of expressed mRNA in the absence of chemical substance: 0.9
Yeast gene YDR079W, cells incubated two hours with the chemical substance
  The level of expressed mRNA in the presence of chemical substance/The level of expressed mRNA in the absence of chemical substance: 1.2
Yeast gene YDR178W, cells incubated two hours with the chemical substance
  The level of expressed mRNA in the presence of chemical substance/The level of expressed mRNA in the absence of chemical substance: 0.9
Yeast gene YDR231C
  The level of expressed mRNA in the presence of chemical substance/The level of expressed mRNA in the absence of chemical substance: 1.1
Yeast gene YDR298C, cells incubated two hours with the chemical substance
  The level of expressed mRNA in the presence of chemical substance/The level of expressed mRNA in the absence of chemical substance: 1.3
Yeast gene YDR377W, cells incubated two hours with the chemical substance
  The level of expressed mRNA in the presence of chemical substance/The level of expressed mRNA in the absence of chemical substance: 1.9
Yeast gene YDR529C, cells incubated two hours with the chemical substance
  The level of expressed mRNA in the presence of chemical substance/The level of expressed mRNA in the absence of chemical substance: 1.2
Yeast gene YEL024W, cells incubated two hours with the chemical substance
  The level of expressed mRNA in the presence of chemical substance/The level of expressed mRNA in the absence of chemical substance: 1.3
Yeast gene YEL039C, cells incubated two hours with the chemical substance
  The level of expressed mRNA in the presence of chemical substance/The level of expressed mRNA in the absence of chemical substance: 0.9
Yeast gene YER178W
  The level of expressed mRNA in the presence of chemical substance/The level of expressed mRNA in the absence of chemical substance: 0.7
Yeast gene YFL057C
  The level of expressed mRNA in the presence of chemical substance/The level of expressed mRNA in the absence of chemical substance: 0.9
Yeast gene YFR053C
  The level of expressed mRNA in the presence of chemical substance/The level of expressed mRNA in the absence of chemical substance: 0.9
Yeast gene YGL018C, cells incubated two hours with the chemical substance
  The level of expressed mRNA in the presence of chemical substance/The level of expressed mRNA in the absence of chemical substance: 1.1
Yeast gene YGL062W
  The level of expressed mRNA in the presence of chemical substance/The level of expressed mRNA in the absence of chemical substance: 0.9
Yeast gene YGL187C, cells incubated two hours with the chemical substance
  The level of expressed mRNA in the presence of chemical substance/The level of expressed mRNA in the absence of chemical substance: 1.3
Yeast gene YGL191W, cells incubated two hours with the chemical substance
  The level of expressed mRNA in the presence of chemical substance/The level of expressed mRNA in the absence of chemical substance: 0.9
Yeast gene YGL205W, cells incubated two hours with the chemical substance
  The level of expressed mRNA in the presence of chemical substance/The level of expressed mRNA in the absence of chemical substance: 1.1
Yeast gene YGL256W, cells incubated two hours with the chemical substance
  The level of expressed mRNA in the presence of chemical substance/The level of expressed mRNA in the absence of chemical substance: 0.7
Yeast gene YGR008C
  The level of expressed mRNA in the presence of chemical substance/The level of expressed mRNA in the absence of chemical substance: 0.9
Yeast gene YGR043C
  The level of expressed mRNA in the presence of chemical substance/The level of expressed mRNA in the absence of chemical substance: 0.9
Yeast gene YGR062C, cells incubated two hours with the chemical substance, 25° C., YPD medium
  The level of expressed mRNA in the presence of chemical substance/The level of expressed mRNA in the absence of chemical substance: 0.7
Yeast gene YGR087C, cells incubated two hours with the chemical substance
  The level of expressed mRNA in the presence of chemical substance/The level of expressed mRNA in the absence of chemical substance: 1.0
Yeast gene YGR174C, cells incubated two hours with the chemical substance
  The level of expressed mRNA in the presence of chemical substance/The level of expressed mRNA in the absence of chemical substance: 1.0
Yeast gene YGR192C
  The level of expressed mRNA in the presence of chemical substance/The level of expressed mRNA in the absence of chemical substance: 1.1
Yeast gene YGR244C
  The level of expressed mRNA in the presence of chemical substance/The level of expressed mRNA in the absence of chemical substance: 0.8
Yeast gene YGR254W
  The level of expressed mRNA in the presence of chemical substance/The level of expressed mRNA in the absence of chemical substance: 1.2
Yeast gene YHR179W
  The level of expressed mRNA in the presence of chemical substance/The level of expressed mRNA in the absence of chemical substance: 1.2
Yeast gene YIL160C
  The level of expressed mRNA in the presence of chemical substance/The level of expressed mRNA in the absence of chemical substance: 1.0
Yeast gene YIR031C, cells incubated two hours with the chemical substance
  The level of expressed mRNA in the presence of chemical substance/The level of expressed mRNA in the absence of chemical substance: 1.6
Yeast gene YJL052W
  The level of expressed mRNA in the presence of chemical substance/The level of expressed mRNA in the absence of chemical substance: 0.7
Yeast gene YJL121C, cells incubated two hours with the chemical substance
  The level of expressed mRNA in the presence of chemical substance/The level of expressed mRNA in the absence of chemical substance: 1.0
Yeast gene YJL166W, cells incubated two hours with the chemical substance
  The level of expressed mRNA in the presence of chemical substance/The level of expressed mRNA in the absence of chemical substance: 1.6
Yeast gene YJL216C, cells incubated two hours with the chemical substance
  The level of expressed mRNA in the presence of chemical substance/The level of expressed mRNA in the absence of chemical substance: 0.8
